Data taken from patent US9744152B2, “Vitamins C and K for treating polycystic diseases” (IC-MedTech Corporation, priority 2010, dated 2017).
Marks after values point to notes of the source that are not given here.

Experiments:
[1] = tested on: PCK rats; assay: Body, liver and kidney weights in PCK rats after 6 weeks of treatment; format: in vivo, rat; settings: for Kidney Weight / Kidney Weight (% bw) / Liver Weight / Liver Weight (% bw): 6 weeks in drinking water; for Body Weight: 6 weeks in drinking water (VC 15 g/L; VK3 0.15 g/L; APATONE® 15 g/L + 0.15 g/L)
From the text: (§1) Thirty seven PCK rats (20 females and 17 males) at age of 3 weeks were divided into four groups: (i) vitamin C (VC) treatment group: 5 females and 4 males; (ii) vitamin K3 (VK3) treatment group: 5 females and 4 males; (iii) APATONE® treatment group: 6 females and 5 males; and (iv) control group: 4 females and 4 males. Similarly, twenty Pkd2^WS25/− mice (12 females and 8 males) at age of 5 months were divided into four groups: (i) vitamin C (VC) treatment group: 3 females; (ii) vitamin K3 (VK3) treatment group: 2 females and 2 males; (iii) APATONE® treatment group: 4 females and 3 males; and (iv) control group: 3 females and 3 males.
(§2) The VC treatment groups were given vitamin C at a concentration of 15 g/L in drinking water. The VK3 treatment groups were given vitamin K3 at a concentration of 0.15 g/L in drinking water. The APATONE® treatment groups were given vitamins C and K3 at concentrations of 15 g/L and 0.15 g/L, respectively, in drinking water. The control groups were given drinking water only. Rats or mice in each group were allowed to drink freely.
(§3) The rats and mice were sacrificed after 6 weeks of treatment. The following parameters were analyzed: body weights, liver and kidney weights, serum biochemistry, renal and hepatic cystic and fibrotic areas, apoptotic and proliferation indices, expression of Cdc25A and its down-stream targets. […]

[2] = tested on: Pkd2^WS25/− mice; assay: Body, liver and kidney weights in Pkd2^WS25/− mice after 6 weeks of treatment; format: in vivo, mouse; settings: for Kidney Weight / Kidney Weight (%) / Liver Weight / Liver Weight (%): 6 weeks in drinking water; for Body Weight: 6 weeks in drinking water (VC 15 g/L; VK3 0.15 g/L; APATONE® 15 g/L + 0.15 g/L)
From the text: as §1, §2, §3

| SMILES | Kidney Weight ([1]; Female) [g] | Kidney Weight (% bw) ([1]; Female) | Liver Weight ([1]; Female) [g] | Liver Weight (% bw) ([1]; Female) | Body Weight ([1]; Female) [g] | Body Weight (g) Change vs Ctrl ([1]; Female) [%] | Kidney Weight (% bw) Change vs Ctrl ([1]; Female) | Kidney Weight (g) Change vs Ctrl ([1]; Female) | Liver Weight (% bw) Change vs Ctrl ([1]; Female) | Liver Weight (g) Change vs Ctrl ([1]; Female) | Kidney Weight ([1]; Male) [g] | Kidney Weight (% bw) ([1]; Male) | Liver Weight ([1]; Male) [g] | Liver Weight (% bw) ([1]; Male) | Body Weight ([1]; Male) [g] | Body Weight (g) Change vs Ctrl ([1]; Male) [%] | Kidney Weight (% bw) Change vs Ctrl ([1]; Male) | Kidney Weight (g) Change vs Ctrl ([1]; Male) | Liver Weight (% bw) Change vs Ctrl ([1]; Male) | Liver Weight (g) Change vs Ctrl ([1]; Male) | further results |
| --- | --- | --- | --- | --- | --- | --- | --- | --- | --- | --- | --- | --- | --- | --- | --- | --- | --- | --- | --- | --- | --- |
| O=C1O[C@H]([C@@H](O)CO)C(O)=C1O [VC, L-ascorbic acid] | 3.88 ± 0.19 | 1.47 ± 0.11 | 16.6 ± 1.3 | 6.36 ± 0.23 | 261 ± 10 | −3.3 | −0.7% | −2.8% | 0.8% | −2.8% | 4.95 ± 0.18 | 1.19 ± 0.13 | 23.3 ± 1.8 | 5.61 ± 0.14 | 416 ± 13 | 0.8 | 0% | 1.2% | −1.2% | −0.4% | Kidney Weight [2]: 0.46 ± 0.04 g; Kidney Weight (%) [2]: 1.76 ± 0.16%; Liver Weight [2]: 2.29 ± 0.43 g; Liver Weight (%) [2]: 9.29 ± 2.01%; Body Weight [2]: 26.7 ± 2.0 g; Body Weight (g) Change vs Ctrl [2]: 1.5%; Kidney Weight (% bw) Change vs Ctrl [2]: −6.7%; Kidney Weight (g) Change vs Ctrl [2]: −6.1%; Liver Weight (% bw) Change vs Ctrl [2]: 15.4%; Liver Weight (g) Change vs Ctrl [2]: 8.0% |
| CC1=CC(=O)c2ccccc2C1=O [VK3, menadione] | 3.78 ± 0.09 | 1.36 ± 0.13 | 15.5 ± 0.6 | 5.60 ± 0.13 | 276 ± 9 | 2.2 | −8.1%* | −5.2%* | −11.3%* | −9.2%* | 4.57 ± 0.13 | 1.11 ± 0.11 | 20.8 ± 0.5 | 5.12 ± 0.09 | 408 ± 16 | −1.1 | −6.7%* | −6.5%* | −9.8%* | −10.9%* | Kidney Weight [2]: 0.42 ± 0.01 g; Kidney Weight (%) [2]: 1.53 ± 0.05%; Liver Weight [2]: 1.64 ± 0.15 g; Liver Weight (%) [2]: 5.87 ± 0.36%; Body Weight [2]: 27.9 ± 1.9 g; Body Weight (g) Change vs Ctrl [2]: 5.8%; Kidney Weight (% bw) Change vs Ctrl [2]: −19.0%*; Kidney Weight (g) Change vs Ctrl [2]: −14.3%*; Liver Weight (% bw) Change vs Ctrl [2]: −27.1%*; Liver Weight (g) Change vs Ctrl [2]: −22.6%* |
